Laboratory results: paper PMC8138313, “Identification, Selection and Immune Assessment of Liver Stage CD8 T Cell Epitopes From Plasmodium falciparum” (Frontiers in Immunology, 2021)
Where a SMILES comes first, the peptide text is derived from it.

Molecular target: HLA A*0301 (Homo sapiens, UniProt P04439)
Test: HLA class I binding assay (cell-free competition, fluorescence polarization)

SMILES: CC[C@H](C)[C@H](NC(=O)[C@H](Cc1ccccc1)NC(=O)[C@H](CO)NC(=O)[C@H](CO)NC(=O)[C@@H](NC(=O)[C@@H](N)CCCCN)[C@@H](C)CC)C(=O)N[C@@H](CC(N)=O)C(=O)N[C@@H](CCC(N)=O)C(=O)N[C@@H](CCCNC(=N)N)C(=O)N[C@@H](CCCCN)C(=O)O (H-KISSFINQRK-OH)
- IC50: 316 nM

SMILES: CSCC[C@H](NC(=O)[C@H](CC(N)=O)NC(=O)[C@H](Cc1ccc(O)cc1)NC(=O)[C@H](CC(N)=O)NC(=O)[C@H](CC(=O)O)NC(=O)[C@H](Cc1ccc(O)cc1)NC(=O)[C@H](CC(N)=O)NC(=O)[C@@H](N)CCCCN)C(=O)N[C@@H](CCCCN)C(=O)O (H-KNYDNYNMK-OH)
- IC50: 2510 nM

SMILES: CC[C@H](C)[C@H](NC(=O)[C@@H](N)CCCNC(=N)N)C(=O)N[C@@H](CO)C(=O)NCC(=O)N[C@@H](Cc1c[nH]c2ccccc12)C(=O)N[C@@H](CCCCN)C(=O)NCC(=O)N[C@@H](CC(=O)O)C(=O)N[C@@H](CC(N)=O)C(=O)N[C@@H](CCCCN)C(=O)O (H-RISGWKGDNK-OH)
- IC50: 548 nM

SMILES: CSCC[C@H](NC(=O)[C@H](CC(N)=O)NC(=O)[C@H](CCC(N)=O)NC(=O)[C@H](CC(N)=O)NC(=O)[C@H](C)NC(=O)[C@H](CCSC)NC(=O)[C@@H](N)[C@@H](C)O)C(=O)N[C@@H](CC(N)=O)C(=O)N[C@@H](Cc1ccc(O)cc1)C(=O)N[C@@H](CCCCN)C(=O)O (H-TMANQNMNYK-OH)
- IC50: 209 nM

SMILES: CC[C@H](C)[C@H](NC(=O)[C@@H]1CCCN1C(=O)[C@H](Cc1ccc(O)cc1)NC(=O)[C@H](CC(=O)O)NC(=O)[C@H](Cc1ccccc1)NC(=O)[C@@H](NC(=O)[C@@H](N)CCC(N)=O)C(C)C)C(=O)N[C@@H](CCC(=O)O)C(=O)N[C@@H](CCCCN)C(=O)O (H-QVFDYPIEK-OH)
- IC50: 1570 nM

SMILES: CC(C)C[C@H](NC(=O)[C@H](C)N)C(=O)N[C@@H](CC(N)=O)C(=O)N[C@@H](CC(C)C)C(=O)N[C@@H](Cc1ccccc1)C(=O)N[C@@H](Cc1ccccc1)C(=O)N[C@@H](CCC(N)=O)C(=O)N[C@@H](CC(N)=O)C(=O)N[C@@H](CCCCN)C(=O)O (H-ALNLFFQNK-OH)
- IC50: 1140 nM

SMILES: CSCC[C@H](NC(=O)[C@@H](NC(=O)[C@H](CC(=O)O)NC(=O)[C@H](Cc1c[nH]cn1)NC(=O)[C@@H]1CCCN1C(=O)[C@H](CO)NC(=O)[C@H](CC(C)C)NC(=O)CN)[C@@H](C)O)C(=O)N[C@@H](CCC(N)=O)C(=O)N[C@@H](CCCCN)C(=O)O (H-GLSPHDTMQK-OH)
- IC50: 1100 nM

SMILES: CC[C@H](C)[C@H](NC(=O)[C@H](CCSC)NC(=O)[C@H](CCCCN)NC(=O)[C@H](CCSC)NC(=O)[C@@H](NC(=O)[C@@H](N)CC(C)C)[C@@H](C)O)C(=O)N[C@@H](CC(N)=O)C(=O)N[C@@H](CC(N)=O)C(=O)N[C@@H](CCCCN)C(=O)O (H-LTMKMINNK-OH)
- IC50: 472 nM

SMILES: CC(C)C[C@H](NC(=O)[C@H](Cc1ccccc1)NC(=O)[C@H](CO)NC(=O)[C@H](Cc1ccccc1)NC(=O)[C@H](CS)NC(=O)[C@@H](N)Cc1ccccc1)C(=O)N[C@@H](CCCCN)C(=O)N[C@@H](CO)C(=O)N[C@@H](CO)C(=O)N[C@@H](CCCCN)C(=O)O (H-FCFSFLKSSK-OH)
- IC50: 9210 nM

SMILES: CC[C@H](C)[C@H](NC(=O)[C@H](CO)NC(=O)[C@H](Cc1ccccc1)NC(=O)[C@@H](NC(=O)[C@H](CO)NC(=O)CNC(=O)[C@H](CO)NC(=O)[C@H](CO)NC(=O)[C@@H](N)CCCNC(=N)N)[C@@H](C)O)C(=O)N[C@@H](CCCCN)C(=O)O (H-RSSGSTFSIK-OH)
- IC50: 326 nM

SMILES: CC[C@H](C)[C@H](NC(=O)[C@H](CO)NC(=O)[C@H](CCCNC(=N)N)NC(=O)[C@H](CC(N)=O)NC(=O)[C@H](CC(N)=O)NC(=O)[C@H](CC(C)C)NC(=O)[C@@H](N)CCCNC(=N)N)C(=O)N[C@@H](Cc1ccc(O)cc1)C(=O)N[C@@H](CCCCN)C(=O)O (H-RLNNRSIYK-OH)
- IC50: 224 nM

SMILES: CC(C)C[C@H](NC(=O)[C@H](Cc1ccccc1)NC(=O)[C@@H](NC(=O)[C@H](CCCCN)NC(=O)[C@H](CCCCN)NC(=O)[C@H](CO)NC(=O)[C@@H](N)CCCNC(=N)N)[C@@H](C)O)C(=O)N[C@H](C(=O)N[C@@H](CCCCN)C(=O)O)C(C)C (H-RSKKTFLVK-OH)
- IC50: 409 nM
